Results published in patent publication US8394971B2, “Indole derivatives as selective androgen receptor modulators (SARMS)” (Janssen Pharmaceutica N.V., priority 2004, dated 2013).
Read-outs that look alike come from different tables or passages of the source.

Tests used:
[1] = target: T1, androgen receptor (adenovirus AdEasy+rAR in COS-7 cells) (Rattus norvegicus, UniProt P15207); assay: COS-7 Whole-Cell Androgen Receptor Binding Assay, Adenovirus Transduction; conditions: for IC50: read-out: IC50
T1 construct: expressed in transfected cells
T1 sequence (P15207 1-902): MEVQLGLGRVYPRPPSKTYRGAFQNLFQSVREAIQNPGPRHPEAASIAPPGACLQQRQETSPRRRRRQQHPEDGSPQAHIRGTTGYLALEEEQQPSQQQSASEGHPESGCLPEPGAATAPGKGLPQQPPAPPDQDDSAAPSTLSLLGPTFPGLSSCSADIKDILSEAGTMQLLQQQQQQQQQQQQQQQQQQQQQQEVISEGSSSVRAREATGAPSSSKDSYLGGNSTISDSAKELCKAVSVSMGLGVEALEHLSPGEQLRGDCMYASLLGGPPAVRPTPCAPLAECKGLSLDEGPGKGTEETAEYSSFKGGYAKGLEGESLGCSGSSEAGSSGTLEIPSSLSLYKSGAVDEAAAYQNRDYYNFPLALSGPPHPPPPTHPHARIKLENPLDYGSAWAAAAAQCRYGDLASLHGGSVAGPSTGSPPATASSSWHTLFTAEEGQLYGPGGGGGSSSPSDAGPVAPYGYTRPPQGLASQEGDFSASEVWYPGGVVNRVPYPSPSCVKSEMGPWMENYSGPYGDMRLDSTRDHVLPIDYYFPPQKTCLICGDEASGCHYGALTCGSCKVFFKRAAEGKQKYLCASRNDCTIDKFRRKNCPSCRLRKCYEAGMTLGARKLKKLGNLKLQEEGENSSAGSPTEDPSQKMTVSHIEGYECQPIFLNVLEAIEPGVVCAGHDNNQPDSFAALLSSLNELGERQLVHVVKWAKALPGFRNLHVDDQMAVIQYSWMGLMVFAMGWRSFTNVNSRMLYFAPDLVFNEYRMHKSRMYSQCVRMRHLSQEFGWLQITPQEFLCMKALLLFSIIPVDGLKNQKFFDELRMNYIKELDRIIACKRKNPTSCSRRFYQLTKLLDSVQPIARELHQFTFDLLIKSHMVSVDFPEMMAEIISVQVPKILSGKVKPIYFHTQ

[2] = target: T2, androgen receptor (rat ventral prostate cytosol) (Rattus norvegicus, UniProt P15207); assay: Androgen Receptor Binding Using Rat Ventral Prostate Cytosol
T2 construct: from tissue; host or cells: ventral prostate of castrated male Sprague Dawley or Wistar rats, cytosol
T2 sequence (P15207 1-902): T1 sequence (P15207 1-902)

[3] = rat cytosol, concentration 3000 nM
[4] = COS binding, 3000 nM unless otherwise noted

Structure (SMILES)	% Inhibition [1]	IC50 ([1]; COS binding)	% Inhibition [2, 3]	% Inhibition ([2]; 3 µM)	% Inhibition [1, 4]
CC(C)CSCC(C)(O)c1cc2cc([N+](=O)[O-])c(C(F)(F)F)cc2[nH]1 (racemic) [compound 170]	67%	> 3000 nM	80%		
CSCCC(C)(O)c1cc2cc([N+](=O)[O-])c(C(F)(F)F)cc2[nH]1 (racemic) [compound 47]	78%	> 1000 nM		81%	
COc1ccc(SCC(C)(O)c2cc3cc(Cl)c(C(F)(F)F)cc3n2S(C)(=O)=O)cc1 (racemic) [compound 130]			32.55%		−8%
CC(O)(C[S+]([O-])Cc1ccccc1)c1cc2cc([N+](=O)[O-])c(C(F)(F)F)cc2[nH]1 (mixture of isomers) [compound 161]			39%		20%
COc1ccc(S(=O)(=O)CC(C)(O)c2cc3cc(Cl)c(C(F)(F)F)cc3[nH]2)cc1 (racemic) [compound 129]			39.5%		10%
